Results on 21 compounds are retold here after US7598244B2, “[1,2,4]triazolo[1,5,a]pyrimidin-2-ylurea derivative and use thereof” (Nippon Kayaku Kabushiki Kaisha, priority 2003, dated 2009).

Structures are written as SMILES.

The test system of the assay is MHC class I molecules of T1 cells (human lymphoma cell line 174×CEM.). The experiment in a line: Effect on expression of MHC class I from T1 cells (flow cytometry, MFI). It is filed as cell-based. Conditions: 3 days culture. On the procedure: Effect on Expression of MHC Class I from T1 Cells (Human Lymphoma Cell Line 174×CEM.)
Using a 96-well flat bottom microplate, T1 cells (5.7×10^3 cells/200 μl/well) were cultured in an RPMI 1640 medium (Iwaki Glass) containing 10% fetal bovine serum (hereinafter abbreviated as FBS; Iruvine Scientific) in an incubator containing 5% carbon dioxide at 37° C. for 3 days, in the presence of a test compound having each concentration obtained by dilution at a common ratio route of 10 from 400 μM. After completion of the culture, the cells were stained with fluoroisothiocyanate-labeled mouse anti-human MHC class I monoclonal antibody (an antibody produced from the cell line W6/32 (ATCC No. CRL 1991)). The mean fluorescence intensity of the stained cells (hereinafter referred to as MFI) was measured using flow cytometry FACScan (BD). The obtained value was defined as an expression level of MHC class I molecules. A test compound concentration necessary for suppressing 20% of the expression level of MHC class I molecules (EC20 value) was calculated using the following formula (1).
[formula] • Eexp: MFI of cultured cells containing test compound after being stained with antibody • Cexp: MFI of cultured cells containing no test compounds after being stained with antibody
(Flow cytometry measures light scatter and fluorescence of single cells or particles in a stream.)

Take `CC(C)NC(=O)Nc1nc2nccc(-c3ccc4c(c3)CCO4)n2n1` [Example 046]: the “EC20 (concentration necessary for suppressing 20% of the expression level of MHC class I molecules)” value was 0.34 µM.
With `CC(C)NC(=O)Nc1nc2nccc(-c3ccc(O)cc3)n2n1` [Example 053], the “EC20 (concentration necessary for suppressing 20% of the expression level of MHC class I molecules)” value stood at 0.37 µM.
As to `CC(=O)OC(C)(C)C(=O)N(C)CCC(C)NC(=O)Nc1nc2nccc(-c3cccs3)n2n1` (stereo not drawn) [Example 299], the “EC20 (concentration necessary for suppressing 20% of the expression level of MHC class I molecules)” value came to 0.43 µM.
Consider `CCNC(=O)Nc1nc2nccc(-c3ccc(OC)cc3)n2n1` [Example 031], for which the “EC20 (concentration necessary for suppressing 20% of the expression level of MHC class I molecules)” value turned out to be 0.4 µM.
For `COc1ccc(-c2ccnc3nc(NC(=O)NC(C)c4cccc(OC(=O)OCc5ccccc5)c4)nn23)cc1` (racemic) [Example 197], the “EC20 (concentration necessary for suppressing 20% of the expression level of MHC class I molecules)” value worked out at 0.21 µM.
With `COCCOc1ccc(-c2ccnc3nc(NC(=O)N[C@@H](C)CCCC(C)C)nn23)cc1` [Example 262, (S)-1-(1,5-dimethylhexyl)-3-{7-[4-(2-methoxyethoxy)phenyl]-[1,2,4]triazolo[1,5-a]pyrimidin-2-yl}urea], the “EC20 (concentration necessary for suppressing 20% of the expression level of MHC class I molecules)” value stood at 0.03 µM.
On to `CC[C@H](C)NC(=O)Nc1nc2nccc(-c3ccc(OC)cc3)n2n1` [Example 234], for which the “EC20 (concentration necessary for suppressing 20% of the expression level of MHC class I molecules)” value worked out at 0.22 µM.
Consider `O=C(Nc1nc2nccc(-c3cccc(OCc4cccnc4)c3)n2n1)NC1CCCCC1` [Example 170], for which the “EC20 (concentration necessary for suppressing 20% of the expression level of MHC class I molecules)” value was 0.25 µM.
`CNC(=O)Nc1nc2nccc(-c3cccs3)n2n1` [Example 013]: the “EC20 (concentration necessary for suppressing 20% of the expression level of MHC class I molecules)” value came out at 0.48 µM.
With `O=C(Nc1ccc(O)cc1)Nc1nc2nccc(-c3cccs3)n2n1` [Example 023] the figure was 0.43 µM; with `COc1ccc(-c2ccnc3nc(NC(=O)NC(C)CCN(C)C(=O)C(C)(C)OC(C)=O)nn23)cc1` (stereo not drawn) [Example 298], 0.08 µM.
As for `COc1cc(C(C)NC(=O)Nc2nc3nccc(-c4cccc(Cl)c4)n3n2)cc(OC)c1OC` (stereo not drawn) [Example 305], the “EC20 (concentration necessary for suppressing 20% of the expression level of MHC class I molecules)” value came out at 0.52 µM.
Take `COc1ccc(-c2ccnc3nc(NC(=O)NC45CC6CC(CC(C6)C4)C5)nn23)cc1` [Example 035]: the “EC20 (concentration necessary for suppressing 20% of the expression level of MHC class I molecules)” value came to 0.38 µM.
For the compound `CC(C)CCC[C@H](C)NC(=O)Nc1nc2nccc(-c3ccc(OCc4ccccc4)cc3)n2n1` [Example 254], the “EC20 (concentration necessary for suppressing 20% of the expression level of MHC class I molecules)” value turned out to be 0.23 µM.
With `COc1cccc([C@H](C)NC(=O)Nc2nc3nccc(-c4ccc(OCC5CCOCC5)cc4)n3n2)c1` [Example 322] the figure was 0.02 µM; with `COc1ccc(-c2ccnc3nc(NC(=O)NC4C5CC6CC(C5)CC4C6)nn23)cc1` (stereo not drawn) [Example 143], 0.74 µM; with `COCCCC(C)NC(=O)Nc1nc2nccc(-c3ccc(OC)cc3)n2n1` (stereo not drawn) [Example 314], 0.08 µM.
Take `COCCOc1ccc(-c2ccnc3nc(NC(=O)N[C@@H](C)CCCC(C)C)nn23)cc1OCCOC` [Example 252]: the “EC20 (concentration necessary for suppressing 20% of the expression level of MHC class I molecules)” value is 0.05 µM.
`COc1ccc(-c2ccnc3nc(NC(=O)N[C@H](C(=O)Nc4ccccc4)C(C)C)nn23)cc1` [Example 088]: the “EC20 (concentration necessary for suppressing 20% of the expression level of MHC class I molecules)” value turned out to be 0.15 µM.
For `COc1cccc(-c2ccnc3nc(NC(=O)N[C@@H](C)CCCC(C)C)nn23)c1` [Example 188] the value was 0.08 µM.
Regarding `COc1ccc(-c2ccnc3nc(NC(=O)NCc4ccccn4)nn23)cc1` [Example 083], the “EC20 (concentration necessary for suppressing 20% of the expression level of MHC class I molecules)” value stood at 0.87 µM.
